Assay results: patent US6723702B2, “Use of relaxin treat diseases related to vasoconstriction” (RAS Medical, Inc., priority 2000, dated 2004)

How the values were obtained:
conscious rats = assay: Acute infusion of L-NAME during chronic infusion of purified porcine RLX; format: in vivo, rat
Experimental: At least 7 days after the implantation of vascular and bladder catheters, osmotic minipumps containing either porcine RLX (4 μg/hour) or vehicle (Ringer's solution) were implanted in intact, female rats (n=7 and 6 rats, respectively). Renal function and MAP were measured on day 5 of relaxin infusion (three 30-minute urine and midpoint blood collections). Next, an infusion of L-NAME (2 μg/minute, a substrate competitive inhibitor of NO synthase) was administered intravenously (i.v.) by infusion pump (Model 200, KD Scientific, Boston, Mass.). Four 1-hour urine collections with midpoint blood samples were collected for the assessment of GFR, ERPF, and ERVR during the L-NAME administration. Identical procedures were performed on additional animals chronically administered porcine RLX (n=5) or vehicle (n=5), except that ANG II (3 ng/minute) was infused rather than L-NAME. Finally, another four, age-matched control rats were administered Ringer's solution instead of either L-NAME or ANG II on day 5 of porcine RLX infusion.
MAP, GFR, ERPF, and ERVR were measured at time zero (baseline), and at 60, 120, 180, and 240 minutes after administering L-NAME and either RLX or vehicle alone. Values represent the mean±SEM. L-NAME (Nω-nitro-L-arginine methyl ester) was infused at 2 μg/minute intravenously, and relaxin was administered at 4 μg/hour by osmotic minipump subcutaneously. There were 7 and 6 rats, respectively, in the RLX and vehicle groups. An asterisk denotes p<0.05; the symbol H denotes p<0.05 for RLX vs. vehicle.

db/db mice = assay: Full thickness wound healing in db/db mice; format: in vivo, mouse; details: PDGF 5 μg/wound/day for 5 days
Experimental: To determine whether rhRlx would improve healing in this model of impaired healing, standardized full thickness (1.5 cm×1.5 cm) wounds were made on the back of db/db mice (Jackson Laboratories, Bar Harbor, Me.). Mice were treated continuously for 21 days with rhRlx via a subcutaneously implanted Alzet pump at a dose of either 0.1 mg/kg/day or 0.2 mg/kg/day. Wound areas were measured in the course of the study. Healing is presented as wound area on day 14 relative to the original size of the wound on day 0 and is calculated as: % of original wound area=[Area on day 14/area on day 0]×100. […] Wound closure was expressed as “% of original wound area.” There were 8-20 animals per group. Wound closure was 91.4% in control group vs. 64% in the relaxin-treated group (p<0.05 by Student-Newman-Kuels test). The differences in the extent of wound healing were small among vehicle control and low dose of rhRlx treatment as well as PDGF (5 μg/wound/day for 5 days) treated mice.
At day 21-post surgery, the wounds were also excised and fixed in formalin prior to paraffin embedding. Sections from the middle of the wound were stained with Masson's trichrome and evaluated by two investigators. […] Inflammatory cell accumulation was present at the wound edges.
Neovascularization is a key component of granulation tissue formation. New blood vessel formation is stimulated by a variety of growth factors including bFGF, and VEGF. […] Immunohistochemical staining of the midsection of full thickness wounds using polyclonal antibody to von Willebrand factor VIII-related antigen was used to identify new blood vessels in the wounds.

[1] = test system: Rat aortic adventitial fibroblasts; assay: Collagen and fibronectin expression by adventitial fibroblasts; format: cell-based
Experimental: Aortic adventitial fibroblasts from normal adult Sprague/Dawley rats were explanted by carefully dissecting the adventitia away from the media and culturing 1 mm^3 pieces in Dulbecco's modified Eagles Medium (DMEM), plus 10% bovine fetal calf serum. When cultures were confluent, fibroblasts were dispersed with trypsin and passaged once prior to use in experiments. Fibroblasts were seeded at 10^5 cells/cm^2 in DMEM+10% FBS in 48-well plates for experiments and assayed for collagen and fibronectin expression, as previously described (Unemori et al. (1996) J. Clin. Invest. 98:2739-2745). […] Half of the cultures were also treated simultaneously with 10 ng/ml of rhRlx. Proteins were biosynthetically labeled with ^3H-proline (25 μCi/ml) (Amersham Corp., Arlington Heights, Ill.), in the presence of ascorbate (50 μg/ml) and β-aminopropionitrile (80 μg/ml), and conditioned media collected 24 hours later. Media were electrophoresed on SDS-PAGE, and the density of collagen and fibronectin bands was determined by densitometric scanning using a digital imaging system (Alpha Innotech Corp, San Leandro, Calif.).

COC(=O)[C@@H](N)CCCNC(=N)N[N+](=O)[O-] [L-NAME, Nω-nitro-L-arginine methyl ester, reference compound]
renal vasodilation and hyperfiltration in the relaxin-treated rats (conscious rats; day 5 of porcine RLX infusion, L-NAME 2 μg/minute i.v.): completely abrogated
rise in MAP and ERVR, and reduction in GFR and ERPF (conscious rats; relaxin-treated compared to vehicle infused rats): significantly greater

PDGF [reference compound]
differences in the extent of wound healing vs vehicle control (db/db mice): small

TGF-β [reference compound]
expression of collagens, of control levels ([1]; TGF-β (20 ng/ml)): 484±67%
Fibronectin expression, of control levels ([1]; TGF-β treatment): 360±5%
